Results from patent US4079139A, “Flavone derivatives” (priority 1974, dated 1978).
Read-outs that look alike come from different tables or passages of the source.

Columns and labels:
[1] = test system: Mouse; conditions: cited from earlier work
[2] = test system: toxicity of sodium Pentobarbital; test: "Life-saving" effect: influence on the toxicity of sodium Pentobarbital; conditions: for PR (ratio between the LD50 of Pentobarbital with and without pre-treatment with the stimulant): mouse, in vivo
[3] = test system: mouse; test: Convulsivant effect on mouse; conditions: for stimulant action on the CNS indicated by the ratio LD50/CD50: mouse, in vivo
[4] = Convulsivant effect on mouse; conditions: mouse, in vivo, po
[5] = test system: respiratory and cardiocirculatory activity; conditions: rabbit; for convulsive phenomena: in vivo, iv
[6] = test system: rat; test: Chronic toxicity in rat
[7] = Stimulating activity on the CNS (analeptic activity, ED50); type: in vivo
[8] = Acute toxicity in rat; set-up: species or system rats Sprague-Dauley; conditions: in vivo, read-out: LD50 and F.L.
Protocol: The test has been performed on Swiss mice of the weight of 20-22 g and on rats Sprague-Dauley of the weight of 120-130 g, subdivided in groups comprising 5 male and 5 female animals. The new drugs have been administered to animals hungry since 15-18 hours, both by oral and i.p.route. The LD50 values have been determined according to Litchfield and Wilcoxon (J.Pharmacol.96,99,1949). The results are reported in the following Table 1, in comparison with LD50 value for Dimefline.

[9] = test system: respiratory depression induced by morphine; conditions: rabbit
[10] = test system: Mouse; test: Acute toxicity in mouse; conditions: in words
[11] = Acute toxicity in mouse; conditions: mouse, in vivo
[12] = test system: mouse; conditions: in vivo
[13] = rat, 5 and 10 mg/kg, 5 times/week over 12 weeks

For `COc1ccc2c(=O)c(C)c(-c3ccccc3)oc2c1CN(C)C` [Dimefline], the “LD50 and F.L.” value ([1]; i.p., Setnikar, J.Pharmacol.128, 176, 1960) is given as 4.8 (4.6-5.0) mg/KG, the “LD50 and F.L.” value ([1]; in vivo, po) is given as 11.9 (10.3-13.8) mg/KG and the “LD50 and L.F.” value ([1]; in vivo) is given as 11,9 (10,3-13,8) mg/Kg. For the same compound, the “PR (ratio between the LD50 of Pentobarbital with and without pre-treatment with the stimulant)” value [2] was 1,27, the “start of the convulsivant effect” value ([3]; in comparison with PV1, in words) was “starts at by far lower doses” and the “stimulant action on the CNS indicated by the ratio LD50/CD50” value [3] was “equivalent for the two drugs”. The TD50 [4] was 8.9 mg/kg and the convulsive phenomena [5] was “several cases showing convulsive phenomena”.
In the case of `COc1ccc2c(=O)c(-c3ccccc3)c(-c3ccc(C)cc3)oc2c1CN(C)C` [PV1], the HB ([6]; 5 mg/Kg, 12 weeks) is reported as 14,88 ± 0,36%, the Hemazies ([6]; 5 mg/Kg, 12 weeks) is reported as 7,38 ± 0,21 10^6 /mm^3 and the Leucocytes ([6]; 5 mg/Kg, 12 weeks) is reported as 17,04 ± 1,36 10^3 /mm^3. For the same compound, the “Leucocytic formula: bas” value ([6]; 5 mg/Kg, 12 weeks) was 0, the “Leucocytic formula: eosin” value ([6]; 5 mg/Kg, 12 weeks) was 0,9 and the “Leucocytic formula: linf.” value ([6]; 5 mg/Kg, 12 weeks) was 77,6. The “Leucocytic formula: monoc.” value ([6]; 5 mg/Kg, 12 weeks) was 7,9, the “Leucocytic formula: neutr.” value ([6]; 5 mg/Kg, 12 weeks) was 13,6 and the “analysis of urine: Hemoglobin” value ([6]; 5 mg/kg) was 1(+). The “analysis of urine: Proteins” value ([6]; 5 mg/kg) was 6(+), the “analysis of urine: Residue” value ([6]; 5 mg/kg) was “normal” and the “relative average weight: Brain” value ([6]; 5 mg/kg) was 579,6 ± 24,5 mg/100 g of body weight. The “relative average weight: Heart” value ([6]; 5 mg/kg) was 289,9 ± 11,2 mg/100 g of body weight, the “relative average weight: Liver” value ([6]; 5 mg/kg) was 3012 mg/100 g of body weight and the “relative average weight: Loins” value ([6]; 5 mg/kg) was 658,5 ± 26,4 mg/100 g of body weight. The “relative average weight: Spleen” value ([6]; 5 mg/kg) was 304,2 ± 16,6 mg/100 g of body weight, the Azotemia ([6]; 5 mg/kg, 12 weeks) was 15,7 ± 0,5 mg/100 ml and the Glycemia ([6]; 5 mg/kg, 12 weeks) was 87,8 ± 3,9 mg/100 ml. For the same compound, the SGOT ([6]; 5 mg/kg, 12 weeks) was 12,9 ± 0,8 mU/ml, the SGPT ([6]; 5 mg/kg, 12 weeks) was 12,1 ± 0,6 mU/ml and the HB ([6]; 10 mg/Kg, 12 weeks) was 15,02 ± 0,42%. For the same compound, the Hemazies ([6]; 10 mg/Kg, 12 weeks) was 7,40 ± 0,20 10^6 /mm^3, the Leucocytes ([6]; 10 mg/Kg, 12 weeks) was 16,70 ± 1,70 10^3 /mm^3 and the “Leucocytic formula: bas” value ([6]; 10 mg/Kg, 12 weeks) was 0. For the same compound, the “Leucocytic formula: eosin” value ([6]; 10 mg/Kg, 12 weeks) was 0,7, the “Leucocytic formula: linf.” value ([6]; 10 mg/Kg, 12 weeks) was 77,8 and the “Leucocytic formula: monoc.” value ([6]; 10 mg/Kg, 12 weeks) was 9,4. The “Leucocytic formula: neutr.” value ([6]; 10 mg/Kg, 12 weeks) was 12,1, the “analysis of urine: Hemoglobin” value ([6]; 10 mg/kg) was 2(+) and the “analysis of urine: Residue” value ([6]; 10 mg/kg) was “normal”. For the same compound, the “relative average weight: Brain” value ([6]; 10 mg/kg) was 583,7 ± 19,8 mg/100 g of body weight, the “relative average weight: Heart” value ([6]; 10 mg/kg) was 288,8 ± 11,3 mg/100 g of body weight and the “relative average weight: Liver” value ([6]; 10 mg/kg) was 3036,5 mg/100 g of body weight. The “relative average weight: Loins” value ([6]; 10 mg/kg) was 672,8 ± 29,6 mg/100 g of body weight, the “relative average weight: Spleen” value ([6]; 10 mg/kg) was 303,7 ± 13,5 mg/100 g of body weight and the Azotemia ([6]; 10 mg/kg, 12 weeks) was 32,5 ± 1,6 mg/100 ml. For the same compound, the Glycemia ([6]; 10 mg/kg, 12 weeks) was 80,3 ± 4,1 mg/100 ml, the SGOT ([6]; 10 mg/kg, 12 weeks) was 12,3 ± 0,5 mU/ml and the SGPT ([6]; 10 mg/kg, 12 weeks) was 10,4 ± 0,7 mU/ml. For the same compound, the deaths [6, 13] was “No death has been registered”, the “increase in the weight of the treated animals” value [6, 13] was “identical to that of the controls” and the “intolerance of the drug” value [6, 13] was “No intolerance of the drug has been noted”. For the same compound, the autopsy ([6]; rat, 5 and 10 mg/kg, 12 weeks) was “no lesion of the different organs”, the “hematologic and hematochemical tests” value ([6]; rat, 5 and 10 mg/kg, 12 weeks, vs controls, in words) was “do not show significant difference between controls and treated animals” and the ED50 [7] was 5 mg/kg. For the same compound, the “reduction of the toxicity of Pentobarbital” value ([2]; equi-toxic doses, vs Dimefline, in words) was “reduces the toxicity of Pentobarbital much more than Dimefline”, the “PR (ratio between the LD50 of Pentobarbital with and without pre-treatment with the stimulant)” value [2] was 1,39 and the LD50 ([8]; ip) was 22.5 mg/kg. The LD50 ([8]; po, os) was 76.4 mg/kg, the “antagonism of the intermittent breath of Sheyne-Stoches” value ([9]; i.v. 1.25 mg/kg, after morphine 10 mg/kg) was “uneffective” and the “reinstatement of normal respiratory amplitude and frequency” value ([9]; i.v. 2.5 mg/kg, after morphine 10 mg/kg, repeated administration needed) was “effective to reinstate normal values of respiratory amplitude and frequency, but needed repeated administration”. The “reinstatement of normal respiratory amplitude and frequency” value ([9]; i.v. 5 mg/kg, after morphine 10 mg/kg, only one administration) was “quite effective”, the cardiocirculatory conditions ([9]; in vivo, iv) was “not remarkably affected” and the “acute toxicity compared with Dimefline” value [10] was “by far less toxic than Dimefline”. For the same compound, the LD50 [11] was 80 mg/kg, the LD50 ([11]; ip) was 28.2 mg/kg and the LD50 ([11]; po) was 80 mg/kg. The “R(LD50 /CD50)” value [12] was 1,38, the “stimulant action on the CNS indicated by the ratio LD50/CD50” value [3] was “equivalent for the two drugs” and the TD50 [4] was 58 mg/kg. For the same compound, the “respiratory amplitude and frequency” value ([5]; i.v. 1.25 - 2.5-5 mg/kg, without morphine) was “constantly reduced the gradual diminution of the respiratory amplitude and frequency” and the convulsive phenomena [5] was “no convulsive phenomenon was detected”.
